Assay results reported in patent US20250304571A1, “BIOLOGICALLY ACTIVE COMPOUNDS AND METHODS THEREOF” (Suzhou Keen Therapeutics Co., Ltd., priority 2022, published 2025).
pIC50: −log10 of the molar value. Like-named read-outs stand apart in the source and are kept apart here.

How the values were obtained:
[1] = Whole blood stability, human; assay type: in vitro ADME; settings: 37° C.; for % Remaining: 1 μM; for half-life at 1 μM: fresh whole blood
[2] = Whole blood stability, mouse; assay type: in vitro ADME; settings: 37° C.; for % Remaining: 1 μM; for half-life at 1 μM: male, Balb/c, fresh whole blood
Procedure: For example, in some embodiments, provided compounds have suitable stability profiles for various applications including therapeutic uses. Various technologies are available in the art for assessing properties, e.g., stability, of compounds and compositions, and can be utilized in accordance with the present disclosure. Certain useful technologies are described herein as examples. In some embodiments, stability was assessed in fresh blood samples, e.g., of human or mouse.
In some embodiments, fresh blood samples were collected from male Balb/c mouse with EDTA-K2 as anti-coagulant. Blood was collected before experiment and stored at 2˜8° C., and equilibrated to room temperature before use. Compounds were dissolved in DMSO at 10 mM concentration. Glibenclamide, used as an internal standard (1S), was prepared in DMSO at 1 mg/mL concentration. An aliquot of 594 μL of blank blood was spiked with 6 μL of working solution (100 μM) to achieve 1 μM of final concentration for test compounds. Solution samples were incubated for 0, 10, 30, 60, 90 and 120 minutes at 37° C., e.g., in a water bath.
An Agilent ZORBAX XDB-C18 (3.5 μm, 50×2.1 mm) was used for HPLC analysis. Mobile phases were 0.1% formic acid in water (mobile phase A), and 0.1% formic acid in acetonitrile (mobile phase B). The injection volume was 10 μL. Mass spectrometer was calibrated and tuned for each test compound. The % remaining of test compound in blood was calculated using the following equation: […]

[3] = test system: 786-O (renal cell carcinoma) cells; experiment: Cell viability (CellTiter Glo) assay, inhibition of 786-O cell proliferation; assay type: cell-based; settings: Homo sapiens, 786-0; 786-O cells, 72 hours, CellTiter Glo; read-out: IC50, inhibition of 786-O cell proliferation
[4] = test system: HT-1080 (fibrosarcoma) cells; experiment: Cell viability (CellTiter Glo) assay, inhibition of HT-1080 cell proliferation; assay type: cell-based; settings: Homo sapiens, HT-1080 cells, 72 hours
786-O cells = experiment: Anti-proliferation activity in 786-O cells in the presence of a ferroptosis inhibitor (Ferrostatin-1 or Liproxstatin-1); assay type: cell-based; settings: Homo sapiens
Procedure: In one assessment, cells (KP4, 786-0 and HT-1080) were seeded (700 cells/well, 1000 cells/well or 3000 cells/well) in 384-well or 96-well plates and incubated at 37° C./5% CO2 for 22-24 hours. A series of 8 different concentrations of compound stocks were created by 5-fold serial dilution in DMSO. These compounds were further diluted in culture media and were then added to cells (final concentrations: 100 μM, 20 μM, 4 μM, 0.8 μM, 0.16 μM, […].). After 72 hours of incubation, 30 μL of CellTiter Glo reagent (Promega) was added to each well and luminescence was measured after 10 minutes using SpectraMax M5/M5e (Molecular Devices). Luminescence from cells treated with DMSO alone was set as background and % of inhibition was calculated as follows: […]
Anti-proliferation activity of various compounds was also tested in the presence of an ferroptosis inhibitor, Ferrostatin-1 (2 μM) or Liproxstatin-1 (2 μM). Certain results are provided in Table 4 and Table 5 as examples. “A” indicates an IC50≤100 nM; “B” indicates an IC50 of >100 nM and ≤500 nM; “C” indicates an IC50>500 nM and ≤5 μM; and “D” indicates an IC50>5 μM.

[5] = test system: KP4 (pancreatic ductal adenocarcinoma) cells; experiment: Cell viability (CellTiter Glo) assay, inhibition of KP4 cell proliferation; assay type: cell-based; settings: Homo sapiens, KP-4; KP4 cells, 72 hours, CellTiter Glo; read-out: IC50, inhibition of KP4 cell proliferation

% Remaining ([1]; @ 240 min) [% @ 240 min]	half-life at 1 μM [1] [h]	% Remaining ([2]; @ 240 min) [% @ 240 min]	half-life at 1 μM [2] [h]	pIC50 [3]	pIC50 [4]	pIC50 (786-O cells; 786-0, 72 h, no ferroptosis inhibitor, read-out: IC50, No Ferroptosis Inhibitor (Table 5))	% Remaining ([1]; @ 120 min) [% @ 120 min]	% Remaining ([2]; @ 120 min) [% @ 120 min]	pIC50 [5]	pIC50 (786-O cells; 786-0, Ferrostatin-1 (2 μM), read-out: IC50, With Ferrostatin-1)	pIC50 (786-O cells; 786-0, no ferroptosis inhibitor, read-out: IC50, No Ferroptosis Inhibitor (Table 4))	Structure (SMILES)
69.7	7.85	63.9	6.47	> 7.00	> 7.00	> 7.00						CC1(C)CN(c2ccc(Oc3ccccc3)cc2)c2nc(COC(=N)N3CCC(F)(F)CC3)nc(N)c21 [Compound E2]
	6.07		5.65	6.30 to 7.00	> 7.00		84	78	> 7.00			N=C(OCc1nc(N)nc(Nc2ccc(Oc3ccccc3)cc2)n1)N1CCOCC1 [Compound F6]
57.6	5.35	74	7.95	> 7.00	> 7.00				> 7.00	< 5.30	> 7.00	N=C(OCc1nc(N)nc(Nc2ccc(Oc3ccccc3)cc2)n1)N1CCC(F)(F)CC1 [Compound F13]
